The values that follow are results of earlier work, collected in patent US20060216365A1, “Aromatherapeutic environmental system” (priority 2000, published 2006).

The conditions of data set [1]: mice, literature (Hikino et al 1980).
For data set [2] the following is noted: mice, literature (Hikino et al 1980). The source holds these as a separate data set.
In the next data set the test system is monoamine oxidase. The settings on record: literature (Truitt 1967).

In the case of `CC(=O)O[C@H]1C[C@@H]2C[C@H]3[C@@H]([C@H](OC(C)=O)C[C@H]3C)[C@]1(C)OC2(C)C` [Kessyl glycol diacetate], the “prolongation of hexobarbital-induced sleep / enhancement of hexobarbital anesthesis” value in data set [1] was “active principles”. The “inhibition of stress-induced ulcer formation” value in data set [2] is listed as “no inhibitory action”.
On to `C=CCc1cc(OC)c2c(c1)OCO2` [myristicin], for which the “monoamine oxidase inhibiting activity” value in the data set with monoamine oxidase was “mild degree”.
Kessyl glycol 2-acetate: the “prolongation of hexobarbital-induced sleep / enhancement of hexobarbital anesthesis” value in data set [1] was “active principles”.
Turning to Kessyl glycol 8-acetate, in data set [1], the “prolongation of hexobarbital-induced sleep / enhancement of hexobarbital anesthesis” value was “active principles”.
